Reference: patent US7132428B2, “Pyrazoloisoquinoline derivative as kinase inhibitors for the treatment of various disorders” (Aventis Pharmaceuticals Inc., priority 2003, dated 2006)

Legend:
[1] = system: human peripheral blood lymphocytes; experiment: Cytotoxicity by LDH release, IL1β-stimulated human peripheral blood lymphocytes; assay type: cell-based
Method: (§1) The pyrazoloisoquinoline derivatives according to the invention were tested for inhibitory activity against NIK in various in vitro assay systems. In this connection, human peripheral blood lymphocytes were preincubated for 1 h with different concentrations of the compounds and then stimulated for 24 h with LPS or IL1β. After that, a commercially obtainable ELISA test kit was used to measure the release of TNFα in the culture supernatant, and the IC50 for the given compound was determined. The cytotoxicity was measured by way of LDH release using a commercially obtainable test kit and the LD50 for the given compound was determined.

[2] = system: human peripheral blood lymphocytes; experiment: Cytotoxicity by LDH release, LPS-stimulated human peripheral blood lymphocytes; assay type: cell-based
Method: as §1

melting point	Compound	Cytotoxicity LD50 [1]	Cytotoxicity LD50 [2]
	c1ccc(-c2nc3c(-c4ccccc4)n[nH]c3c3ccccc23)cc1 [Example 1, 3,5-Diphenyl-1H-pyrazolo[4,3-c]isoquinoline]	>100 µM	>100 µM
299 to 300 °C	Cc1n[nH]c2c1nc(-c1ccccc1)c1cc(Br)ccc12 [Example 62, 7-Bromo-3-methyl-5-phenyl-1H-pyrazolo[4,3-c]isoquinoline]		
250 to 251 °C	CCc1n[nH]c2c1nc(-c1ccccc1)c1ccccc12 [Example 46, 5-phenyl-3-ethyl-1H-pyrazolo[4,3-c]isoquinoline]		
	Cc1n[nH]c2c1nc(-c1cccc(O)c1)c1ccccc12 [Example 3, 3-(3-Methyl-1H-pyrazolo[4,3-c]isoquinolin-5-yl)phenol]	>100 µM	>100 µM
264 to 265 °C	FC(F)(F)c1n[nH]c2c1nc(-c1ccccc1)c1ccccc12 [Example 75, 5-phenyl-3-trifluoromethyl-1H-pyrazolo[4,3-c]isoquinoline]		
219 to 220 °C	CCc1n[nH]c2c1nc(-c1cccnc1)c1ccccc12 [Example 47, 3-Ethyl-5-(pyridin-3-yl)-1H-pyrazolo[4,3-c)isoquinoline]		
	COc1cccc(-c2nc3c(C)n[nH]c3c3ccccc23)c1 [Example 2, 5-(3-Methoxyphenyl)-3-methyl-1H-pyrazolo[4,3-c]isoquinoline]	>100 µM	>100 µM
